This note sets out measurements from patent US8039014B2, “3′-alkoxyspirocyclopentyl-substituted tetramic and tetronic acids” (Bayer Cropscience AG, priority 2005, dated 2011).

In this data set the test system is cereal. Briefly: Herbicidal post-emergence action with safener: container trials with cereal outdoors ('bird cage'), mefenpyr 1 day prior to herbicide application. Conditions: without safener. The format is in vivo. The method, then:
Seeds of monocotyledonous and dicotyledonous weed and crop plants are placed into sandy loam in wood fiber pots or in plastic pots, covered with soil and cultivated in a greenhouse, during the vegetation period also outdoors outside of the greenhouse, under good growth conditions. 2 to 3 weeks after sowing, the test plants are treated at the one- to three-leaf stage. The test compounds, formulated as wettable powders (WP) or liquid (EC), are, in various dosages at a water application rate of 300 l/ha (converted), with wetting agent (0.2 to 0.3%) added, sprayed onto the plants and the surface of the soil. […]
If it is additionally to be tested as to whether safeners can improve the plant compatibility of test substances in the case of crop plants, the following options are used for applying the safener: • seeds of the crop plants are, before sowing, dressed with the safener substance (the amount of safener stated in percent, based on the weight of the seed) • before the application of the test substances, the crop plants are sprayed with the safener at a certain application rate per hectare (usually 1 day before the application of the test substances) • the safener is applied together with the test substance as a tank mix (the amount of safener is stated in g/ha or as a ratio, based on the herbicide). […]

For `CCc1cc(Cl)cc(OC)c1C1=C(O)C2(CCC(OC)C2)NC1=O` (centres unmarked) [Example I-1-a-4], the “Summer wheat after 10 d observed (%)” value reads like this: (25 g ai/ha) 25%; (50 g ai/ha) 40%.
